Each compound was assayed against T1, Kv7.2/7.3 (Homo sapiens, UniProt O43525+O43526) (assay: Kv7.2/7.3 activation assay, QPatch planar patch-clamp, single concentration screen). Settings: compound 3 μM; Kv7.2/Kv7.3 co-expressing HEK cells; steady-state current at end of 1 s pulse to −30 mV.
T1 construct: host or cells: HEK cells, tetracycline-inducible expression
Assay type: cell-based
Procedure: Kv7.2/7.3 Activation Assay
The ability of compounds to potentiate K-currents in KV7.2/7.3 containing HEK cells was assessed using planar patch-clamp on the QPatch automated screening platform.
The hKV7.2/7.3 cell line was obtained from Chantest (Cleveland, Ohio 44128) cat.# CT6147. These HEK cells will express the Kv7.2/7.3 ion channels when induced.
Cell Culture: Cells were maintained in a media containing DMEM/F12; 50/50 (GIBCO cat.#11330), 10% Fetal Bovine Serum (FBS) (GIBCO cat.#26140), 100 units/mL Penicillin-Streptomycin (GIBCO cat.#15140), 0.005 mg/mL Blasticidin (INVIVOGEN cat.# ant-bl-1), 0.5 mg/mL Geneticin (GIBCO cat.#10131), 0.1 mg/mL Zeocin (GIBCO cat.# R25001). Cells used in the electrophysiology assay were maintained in a media without Blasticidin, Geneticin and Zeocin for 2 days and channel expression was induced by adding tetracycline (BIOLINE cat.# BIO-87030) at a final concentration of […]. Cells were grown in T-175 flask to ˜75% confluency. Currents were recorded 24 hours after channel induction.
Test compounds were prepared by performing serial dilutions on a Biomek NX^P (BECKMAN COULTER). Final dilutions were made in external recording solution with a final DMSO concentration of 0.1% DMSO. For single concentration screens each plate had 10 μM retigabine as a positive control and 0.1% DMSO as a negative control.
On the day of the experiment cells were washed with Hank's Balanced Salt Solution (HBBS) (GIBCO cat.#14175) and harvested with Tryple (GIBCO cat.#12604). Cells were then centrifuged at 2000 rpm for 5 minutes and resuspended in CHO-S-SFM (GIBCO cat.#12052) at ˜3×10^6 cells/mL. Cells were stirred for 30 minutes before experiments were started. External recording solution contained (in mM): NaCl (145), KCl (4), CaCl2 (2), MgCl2 (1), HEPES (10) and Glucose (10); pH was adjusted to 7.4 with NaOH and the osmolarity was adjusted to 300-305 mOsM with sucrose if necessary. Internal solution contained (in mM): KCl (125), KF (10), EGTA (5), Na2ATP (5), MgCl2 (3.2), HEPES (5); pH was adjusted to 7.2 with KOH and the osmolarity was adjusted to 298-302 mOsM with sucrose.
Potassium channel activity was measured on the QPatch HTX (Sophion Bioscience) using QPlates with 48-wells/plate. Each cell was taken as an independent experiment and only one compound was tested per well. Potassium channel activity was elicited by holding at −80 mV and stepping to −30 mV for 1 s followed by a 100 ms pulse to −120 mV.
Baseline conditions were obtained by recording 5 sweeps in the external solution only, this was repeated for three applications of the external solution. The effect of test compounds on elicited current was then assessed by recording 5 sweeps in the presence of a 3 μM or 10 μM compound solution. The steady-state current at the end of the 1 s pulse to −30 mV was measured to determine the fold increase from baseline.

How did the “Kv7.2/7.3 Activity at 3 μM (increase in current over baseline)” value turn out when `O=C(CC(C(F)(F)F)C(F)(F)F)Nc1nc2ccc(Cl)nc2n1C1CCC1` [Example 6, N-(5-chloro-3-cyclobutyl-3H-imidazo[4,5-b]pyridin-2-yl)-4,4,4-trifluoro-3-(trifluoromethyl)butanamide] was run?
The value was “− (<1.2-fold increase over baseline (−))”.

With `CC1(C)[C@H]2CC[C@@H](CC(=O)Nc3nc4cccnc4n3C3CCC3)[C@@H]1C2` [Example 24, N-(3-cyclobutyl-3H-imidazo[4,5-b]pyridin-2-yl)-2-((1S,2S,5S)-6,6-dimethylbicyclo[3.1.1]heptan-2-yl)acetamide] as the compound, how does the “Kv7.2/7.3 Activity at 3 μM (increase in current over baseline)” value read?
The value was “+++ (>6-fold increase over baseline (+++))”.

For `O=C(Cc1ccc(F)cc1)Nc1nc2cc(Cl)cnc2n1C1CCC1` [Example 58, N-(6-chloro-3-cyclobutyl-3H-imidazo[4,5-b]pyridin-2-yl)-2-(4-fluorophenyl)acetamide], which “Kv7.2/7.3 Activity at 3 μM (increase in current over baseline)” value is on record?
The value was “− (<1.2-fold increase over baseline (−))”.

With `CC(C)(C)OCCC(=O)Nc1nc2ccc(C3CC3)nc2n1CC(F)(F)F` [Example 108, 3-(tert-butoxy)-N-(5-cyclopropyl-3-(2,2,2-trifluoroethyl)-3H-imidazo[4,5-b]pyridin-2-yl)propanamide] as the compound, how does the “Kv7.2/7.3 Activity at 3 μM (increase in current over baseline)” value read?
The value was “+++ (>6-fold increase over baseline (+++))”.

`CC(C)(C)CC(=O)Nc1nc2ccc(-c3cccnc3)nc2n1C1CCC1.Cl` [Example 151, N-(3-cyclobutyl-5-(pyridin-3-yl)-3H-imidazo[4,5-b]pyridin-2-yl)-3,3-dimethylbutanamide hydrochloride] was tested. Which “Kv7.2/7.3 Activity at 3 μM (increase in current over baseline)” value did it give?
Its value is “− (<1.2-fold increase over baseline (−))”.

How did the “Kv7.2/7.3 Activity at 3 μM (increase in current over baseline)” value turn out when `O=C(CCC1(C(F)(F)F)CC1)Nc1nc2ccc(Cl)nc2n1C1CCC1` [Example 223, N-(5-chloro-3-cyclobutyl-3H-imidazo[4,5-b]pyridin-2-yl)-3-(1-(trifluoromethyl)cyclopropyl)propanamide] was run?
The value was “− (<1.2-fold increase over baseline (−))”.

Same assay, conditions: compound 10 μM; Kv7.2/Kv7.3 co-expressing HEK cells; steady-state current at end of 1 s pulse to −30 mV

How did the “Kv7.2/7.3 Activity at 10 μM (increase in current over baseline)” value turn out when `CC(C)(C)OCCC(=O)Nc1nc2cccnc2n1C1CCC1` [Example 3, 3-(tert-butoxy)-N-(3-cyclobutyl-3H-imidazo[4,5-b]pyridin-2-yl)propanamide] was run?
Its value is “+++ (>6-fold increase over baseline (+++))”.

For `O=C(CC1CC2CCC1C2)Nc1nc2ccc(Cl)nc2n1C1CCC1` (centres unmarked) [Example 9, 2-(bicyclo[2.2.1]heptan-2-yl)-N-(5-chloro-3-cyclobutyl-3H-imidazo[4,5-b]pyridin-2-yl)acetamide], which “Kv7.2/7.3 Activity at 10 μM (increase in current over baseline)” value is on record?
The value was “+++ (>6-fold increase over baseline (+++))”.

With `CC1(C)[C@H]2CC[C@@H](CC(=O)Nc3nc4cccnc4n3C3CCC3)[C@@H]1C2` [Example 24, N-(3-cyclobutyl-3H-imidazo[4,5-b]pyridin-2-yl)-2-((1S,2S,5S)-6,6-dimethylbicyclo[3.1.1]heptan-2-yl)acetamide] as the compound, how does the “Kv7.2/7.3 Activity at 10 μM (increase in current over baseline)” value read?
The value was “+++ (>6-fold increase over baseline (+++))”.

With `O=C(CCC1CCCC1)Nc1nc2ccc(Cl)nc2n1C1CCC1` [Example 27, N-(5-chloro-3-cyclobutyl-3H-imidazo[4,5-b]pyridin-2-yl)-3-cyclopentylpropanamide] as the compound, how does the “Kv7.2/7.3 Activity at 10 μM (increase in current over baseline)” value read?
Its value is “+++ (>6-fold increase over baseline (+++))”.

For `CC(C)CC(=O)Nc1nc2ccc(Cl)nc2n1C1CCC1` [Example 28, N-(5-chloro-3-cyclobutyl-3H-imidazo[4,5-b]pyridin-2-yl)-3-methylbutanamide], which “Kv7.2/7.3 Activity at 10 μM (increase in current over baseline)” value is on record?
Its value is “+++ (>6-fold increase over baseline (+++))”.

How did the “Kv7.2/7.3 Activity at 10 μM (increase in current over baseline)” value turn out when `O=C(CC1CCCCC1)Nc1nc2ccc(Cl)nc2n1C1CCC1` [Example 29, N-(5-chloro-3-cyclobutyl-3H-imidazo[4,5-b]pyridin-2-yl)-2-cyclohexylacetamide] was run?
Its value is “+++ (>6-fold increase over baseline (+++))”.

With `CC1(C)[C@H]2CC[C@@H](CC(=O)Nc3nc4ccc(Cl)nc4n3C3CCC3)[C@@H]1C2` [Example 33, N-(5-chloro-3-cyclobutyl-3H-imidazo[4,5-b]pyridin-2-yl)-2-((1S,2S,5S)-6,6-dimethylbicyclo[3.1.1]heptan-2-yl)acetamide] as the compound, how does the “Kv7.2/7.3 Activity at 10 μM (increase in current over baseline)” value read?
The value was “+++ (>6-fold increase over baseline (+++))”.

How did the “Kv7.2/7.3 Activity at 10 μM (increase in current over baseline)” value turn out when `CCOCC(=O)Nc1nc2ccc(Cl)nc2n1C1CCC1` [Example 34, N-(5-chloro-3-cyclobutyl-3H-imidazo[4,5-b]pyridin-2-yl)-2-ethoxyacetamide] was run?
Its value is “− (<1.2-fold increase over baseline (−))”.

With `O=C(CCc1ccccc1)Nc1nc2ccc(Cl)nc2n1C1CCC1` [Example 35, N-(5-chloro-3-cyclobutyl-3H-imidazo[4,5-b]pyridin-2-yl)-3-phenylpropanamide] as the compound, how does the “Kv7.2/7.3 Activity at 10 μM (increase in current over baseline)” value read?
Its value is “+++ (>6-fold increase over baseline (+++))”.

For `CC(C)Cn1c(NC(=O)CC(C)(C)C)nc2ccc(Cl)nc21` [Example 36, N-(5-chloro-3-isobutyl-3H-imidazo[4,5-b]pyridin-2-yl)-3,3-dimethylbutanamide], which “Kv7.2/7.3 Activity at 10 μM (increase in current over baseline)” value is on record?
The value was “+++ (>6-fold increase over baseline (+++))”.

With `CC(C)(C)CC(=O)Nc1nc2ccc(C(F)(F)F)nc2n1C1CCC1` [Example 39, N-(3-cyclobutyl-5-(trifluoromethyl)-3H-imidazo[4,5-b]pyridin-2-yl)-3,3-dimethylbutanamide] as the compound, how does the “Kv7.2/7.3 Activity at 10 μM (increase in current over baseline)” value read?
The value was “+++ (>6-fold increase over baseline (+++))”.

With `CC(C)CC(=O)Nc1nc2ccc(C(F)(F)F)nc2n1C1CCC1` [Example 42, N-(3-cyclobutyl-5-(trifluoromethyl)-3H-imidazo[4,5-b]pyridin-2-yl)-3-methylbutanamide] as the compound, how does the “Kv7.2/7.3 Activity at 10 μM (increase in current over baseline)” value read?
Its value is “+++ (>6-fold increase over baseline (+++))”.

For `O=C(CC1CCCCC1)Nc1nc2ccc(C(F)(F)F)nc2n1C1CCC1` [Example 43, N-(3-cyclobutyl-5-(trifluoromethyl)-3H-imidazo[4,5-b]pyridin-2-yl)-2-cyclohexylacetamide], which “Kv7.2/7.3 Activity at 10 μM (increase in current over baseline)” value is on record?
Its value is “+++ (>6-fold increase over baseline (+++))”.

For `CC1(C)[C@H]2CC[C@@H](CC(=O)Nc3nc4ccc(C(F)(F)F)nc4n3C3CCC3)[C@@H]1C2` [Example 47, N-(3-cyclobutyl-5-(trifluoromethyl)-3H-imidazo[4,5-b]pyridin-2-yl)-2-((1S,2S,5S)-6,6-dimethylbicyclo[3.1.1]heptan-2-yl)acetamide], which “Kv7.2/7.3 Activity at 10 μM (increase in current over baseline)” value is on record?
The value was “+++ (>6-fold increase over baseline (+++))”.

For `O=C(CCOC1CCCC1)Nc1nc2ccc(C(F)(F)F)nc2n1C1CCC1` [Example 91, N-(3-cyclobutyl-5-(trifluoromethyl)-3H-imidazo[4,5-b]pyridin-2-yl)-3-(cyclopentyloxy)propanamide], which “Kv7.2/7.3 Activity at 10 μM (increase in current over baseline)” value is on record?
The value was “+++ (>6-fold increase over baseline (+++))”.

How did the “Kv7.2/7.3 Activity at 10 μM (increase in current over baseline)” value turn out when `CC1(C)CCC(CC(=O)Nc2nc3ccc(C(F)(F)F)nc3n2C2CCC2)O1` (centres unmarked) [Example 96, N-(3-cyclobutyl-5-(trifluoromethyl)-3H-imidazo[4,5-b]pyridin-2-yl)-2-(5,5-dimethyltetrahydrofuran-2-yl)acetamide] was run?
Its value is “+++ (>6-fold increase over baseline (+++))”.

With `CC(C)(C)CC(=O)Nc1nc2ccc(Cl)nc2n1-c1ccc(F)cc1` [Example 105, N-(5-chloro-3-(4-fluorophenyl)-3H-imidazo[4,5-b]pyridin-2-yl)-3,3-dimethylbutanamide] as the compound, how does the “Kv7.2/7.3 Activity at 10 μM (increase in current over baseline)” value read?
Its value is “+++ (>6-fold increase over baseline (+++))”.

With `CC(C)Oc1ccc2nc(NC(=O)CCOC(C)(C)C)n(CC(F)(F)F)c2n1` [Example 120, 3-(tert-butoxy)-N-(5-isopropoxy-3-(2,2,2-trifluoroethyl)-3H-imidazo[4,5-b]pyridin-2-yl)propanamide] as the compound, how does the “Kv7.2/7.3 Activity at 10 μM (increase in current over baseline)” value read?
The value was “+++ (>6-fold increase over baseline (+++))”.

For `O=C(CCC1CCOC1)Nc1nc2ccc(C(F)(F)F)nc2n1C1CCC1` (centres unmarked) [Example 124, N-(3-cyclobutyl-5-(trifluoromethyl)-3H-imidazo[4,5-b]pyridin-2-yl)-3-(tetrahydrofuran-3-yl)propanamide], which “Kv7.2/7.3 Activity at 10 μM (increase in current over baseline)” value is on record?
The value was “+++ (>6-fold increase over baseline (+++))”.

Which “Kv7.2/7.3 Activity at 10 μM (increase in current over baseline)” value does the source give for `Cc1ccc2nc(NC(=O)CCOC(C)(C)C)n(CC(F)(F)F)c2n1` [Example 132, 3-(tert-butoxy)-N-(5-methyl-3-(2,2,2-trifluoroethyl)-3H-imidazo[4,5-b]pyridin-2-yl)propanamide] here?
Its value is “+++ (>6-fold increase over baseline (+++))”.
